Measurements: PubChem BioAssay AID493095 (Sanford-Burnham Center for Chemical Genomics, 2011)

assay: HIV fusion inhibitor analogs, peptide binding, SAR follow-up, biochemical, set 2, fluorescence quenching (AID 493095); conditions: cell-free peptide binding, 30 min

Row | IC50 [µM] | Compound
1 | 17.3 | O=C(O)c1ccc([C@@H]2Nc3ccc(S(=O)(=O)Nc4cccc5ccccc45)cc3[C@@H]3C=CC[C@@H]32)cc1
2 | 44.8 | O=C(O)CCCN1C(=O)/C(=C\c2ccc(-c3ccc(Cl)cc3)o2)SC1=S
3 | 7.41 | CCOC(=O)C1=C(c2ccccc2)N=c2s/c(=C\c3ccc(OCC(=O)O)cc3)c(=O)n2C1c1cccc(OC)c1 (centres undefined)
4 | 12.9 | COc1ccc(-c2ccc(/C=C3\SC(=S)N(CCCC(=O)O)C3=O)o2)cc1
5 | 6.31 | COc1cccc(-n2cccc2/C=C2/C(=N)N3C(=NC2=O)SN=C3S(C)(=O)=O)c1
6 | 53 | CCc1ccc(-n2cccc2/C=C2/C(=N)N3C(=NC2=O)SN=C3S(C)(=O)=O)cc1
7 | 69.1 | COc1ccccc1NS(=O)(=O)c1ccc2c(c1)C1C=CCC1C(c1ccc(C(=O)O)cc1)N2 (centres undefined)
8 | 9.16 | CS(=O)(=O)C1=NSC2=NC(=O)/C(=C\c3cccn3-c3cccc(Cl)c3)C(=N)N21
9 | 9.41 | CS(=O)(=O)C1=NSC2=NC(=O)/C(=C\c3cccn3-c3ccc(F)cc3)C(=N)N21
10 | 6.28 | CCOC(=O)C1=C(C)N=c2sc(=Cc3ccc(OCC(=O)O)cc3)c(=O)n2C1c1ccc(F)cc1 (centres undefined)
11 | 6.55 | CS(=O)(=O)C1=NSC2=NC(=O)/C(=C\c3cccn3-c3ccc(Cl)c(Cl)c3)C(=N)N21
12 | 3.26 | O=C(O)CCCN1C(=O)/C(=C\c2ccc(-c3ccc(Br)cc3)o2)SC1=S
13 | 11.1 | O=C(O)CCCN1C(=O)/C(=C\c2ccc(-c3ccc(F)cc3)o2)SC1=S
14 | 22.9 | CCOC(=O)C1=C(C)N=c2s/c(=C\c3ccc(OCC(=O)O)cc3)c(=O)n2C1c1ccc(OC)c(OCC)c1 (centres undefined)
15 | 4.27 | O=C(O)CCCN1C(=O)/C(=C\c2ccc(-c3cccc(Cl)c3)o2)SC1=S
16 | 8.05 | COc1cccc(C2C(C(=O)Nc3ccccc3)=C(C)N=c3sc(=Cc4ccc(OCC(=O)O)cc4)c(=O)n32)c1 (centres undefined)
17 | 19.6 | CCOC(=O)C1=C(C)N=c2sc(=Cc3ccc(OCC(=O)O)cc3)c(=O)n2C1c1ccccc1 (centres undefined)
18 | 15.4 | O=C(O)c1ccc(C[n+]2c(-c3ccc([N+](=O)[O-])cc3)csc2Nc2ccccc2)cc1
19 | 6.24 | Cc1ccc(-n2cccc2/C=C2/C(=N)N3C(=NC2=O)SN=C3S(C)(=O)=O)cc1

Continued, compound first:

Row | Compound | IC50 [µM]
20 | COc1ccc(CCn2c(O)cc3nn(-c4nc5ccccc5s4)c(=O)c-3c2C)cc1 | 5.6
21 | O=C(O)CCC(C(=O)O)N1C(=O)/C(=C\c2ccco2)SC1=S (centres undefined) | 1.38
22 | CS(=O)(=O)C1=NSC2=NC(=O)/C(=C\c3cccn3-c3ccc(Cl)cc3)C(=N)N21 | 25.2
23 | O=C(O)CCCN1C(=O)/C(=C/c2cc3ccccc3o2)SC1=S | 10.8
24 | CCOc1ccc(-n2cccc2/C=C2/C(=N)N3C(=NC2=O)SN=C3S(C)(=O)=O)cc1 | 40.3
25 | O=C(O)CCCN1C(=O)/C(=C/c2ccc(-c3ccc(Cl)c(Cl)c3)o2)SC1=S | 28.9
26 | O=C(O)CCCN1C(=O)/C(=C/c2ccc(-c3cccc(C(F)(F)F)c3)o2)SC1=S | 5.43
27 | CCOC(=O)C1=C(C)N=c2s/c(=C\c3ccc(OCC(=O)O)cc3)c(=O)n2C1c1ccc(Cl)cc1 (centres undefined) | 8.89
28 | CS(=O)(=O)C1=NSC2=NC(=O)/C(=C\c3cccn3-c3cc(Cl)cc(Cl)c3)C(=N)N21 | 30
29 | O=C(O)c1ccc(C2Nc3ccc(S(=O)(=O)Nc4cc(Cl)ccc4Cl)cc3C3C=CCC32)cc1 (centres undefined) | 48.2
30 | COc1ccc(-n2cccc2/C=C2/C(=N)N3C(=NC2=O)SN=C3S(C)(=O)=O)cc1Cl | 12.2
31 | CS(=O)(=O)C1=NSC2=NC(=O)/C(=C\c3cccn3-c3cccc(F)c3)C(=N)N21 | 3.71
32 | CCOC(=O)C1=C(C)N=c2sc(=Cc3ccc(OCC(=O)O)cc3)c(=O)n2C1c1ccccc1OC (centres undefined) | 31.6
33 | CS(=O)(=O)C1=NSC2=NC(=O)/C(=C\c3cccn3-c3ccc(Br)cc3)C(=N)N21 | 5.36
34 | CS(=O)(=O)C1=NSC2=NC(=O)/C(=C\c3cccn3-c3cccc(C(F)(F)F)c3)C(=N)N21 | 5.8
35 | CC1=C(C(=O)OC(C)C)C(c2ccc(Cl)cc2)n2c(s/c(=C\c3ccc(OCC(=O)O)cc3)c2=O)=N1 (centres undefined) | 19.1
36 | CCOC(=O)C1=C(C)N=c2sc(=Cc3ccc(OCC(=O)O)cc3)c(=O)n2C1c1ccc(OC)cc1OC (centres undefined) | 20.2
37 | Cc1ccc(-n2cccc2/C=C2/C(=N)N3C(=NC2=O)SN=C3S(C)(=O)=O)cc1C | 5.98
38 | Cc1c2c(=O)n(-c3nc4ccccc4s3)nc-2cc(O)n1Cc1ccccc1Cl | 7.69
39 | CCOC(=O)C1=C(C)N=c2sc(=Cc3ccc(OCC(=O)O)cc3)c(=O)n2C1c1cc(OC)c(OC)c(OC)c1 (centres undefined) | 7.82
